Where a name gives a salt, the structure may show the parent alone. Read-outs that look alike come from different tables or passages of the source.
Columns and labels:
[1] = tested on: DLD-1 BRCA2(−/−) colorectal adenocarcinoma cells; test: Cell viability assay (Cell Titer-Glo, 7 days), DLD-1 BRCA2(−/−); type: cell-based; details: Homo sapiens, 168 h, DLD-1 BRCA2(−/−) cells
Excerpt: (§1) In some embodiments, the biological assay measures the effects that compounds of the present disclosure may have on the viability of cells, e.g., the viability of cancer cells. In some embodiments, DLD-1 wild-type and DLD-1 BRCA2(−/−) colorectal adenocarcinoma cells, an isogenic pair of cell lines differing in the presence and absence, respectively, of both BRCA2 alleles, are used to measure the effect of the disclosed compounds on the viability of cancer cells. In some embodiments, the cells are harvested during the logarithmic growth period, counted, and seeded at a specified count in the wells of a 96- or 384-well cell culture plate. In some embodiments, after seeding, the cells are incubated, e.g., at 37° C., 5% CO2 overnight. In some embodiments, the cells are treated with compounds, e.g., with serially diluted test compounds at 8-11 concentrations within a desired concentration range, e.g., from 1 nM-10 μM, for the generation of dose-response curves. In some embodiments, the plate is further incubated, e.g., for another 3-7 days in a humidified incubator at 37° C. and 5% CO2. In some embodiments, cell viability is assessed by luminescence measurement after addition of Cell Titer-Glo reagent (Promega, Madison, Wis.) according to the manufacturer's instructions. In some embodiments, cell viability IC50 values are calculated using XLFit, equation 201: y=A+((B−A)/(1+((x/C)^D))), where A=bottom, B=top, C=IC50, and D=slope. In some embodiments, the effects of the test compounds on the viability of other cell lines such as MDA-MB-436, MDA-MB-231, SUM149PT, HCC1395, and UWB1.289 are determined in an analogous method.
(§2) Compounds of the present disclosure were tested for their effects on the viability of cancer cells. DLD-1 wild-type and DLD-1 BRCA2(−/−) colorectal adenocarcinoma cells, an isogenic pair of cell lines differing in the presence and absence, respectively, of both BRCA2 alleles, were used. The cells were harvested during the logarithmic growth period, counted, and seeded at 50 cells/well for DLD-1 wild-type and 200 cells/well for DLD-1 BRCA2(−/−) in a 384-well cell culture plate. After seeding, cells were incubated at 37° C., 5% CO2 overnight. Cells were treated with serially diluted test compounds at 10 concentrations (e.g., from 1.5 nM-30 μM) for generation of dose response curves, or at a single concentration. The plate was further incubated for another 7 days in a humidified incubator at 37° C. and 5% CO2. Cell viability was assessed by luminescence measurement after addition of Cell Titer-Glo reagent (Promega, Madison, Wis.) according to the manufacturer's instructions. Cell viability IC50 values were calculated using XLFit, equation 201. y=A+((B−A)/(1+((x/C)^D))), where A=bottom, B=top, C=IC50, and D=slope. IC50 values are shown in Table B and are presented in ranges, in which “+++”<300 nM, 300 nM≤“++”<3000 nM, and “+”≥3000 nM. Values for percent inhibition at 10 μM are also shown in Table B and are presented in ranges, in which “***”≥67%, 33%: “**”≤67%, and “*”<33%. Effects of the test compounds on the viability of other cell lines such as MDA-MB-436, MDA-MB-231, SUM149PT, HCC1395, and UWB1.289 are determined in an analogous method.

[2] = target: recombinant human PARP1 (Homo sapiens, UniProt P09874); test: PARP1 fluorescence polarization binding assay; details: GST-tagged PARP1 20 nM, PARP1-FL probe 3 nM
Method: In some embodiments, the biological assay is described in the Examples herein. In some embodiments, the biological assay measures PARP-1 binding by way of fluorescence polarization measurements. In some embodiments, binding of a test compound to recombinant human PARP-1 reduces the amount of binding of a fluorescent probe, and consequently reduces the detected level of fluorescence polarization. In some test compound stock solutions are prepared in a solvent, e.g., DMSO, and are serially diluted into a range of concentrations, e.g., 15 concentrations, 14 concentrations, 13 concentrations, 12 concentrations, 11 concentrations, 10 concentrations, 9 concentrations, 8 concentrations, 7 concentrations, 6 concentrations, or 5 concentrations, by a dilution factor, e.g., a 10-fold dilution factor, a 9-fold dilution factor, an 8-fold dilution factor, a 7-fold dilution factor, a 6-fold dilution factor, a 5-fold dilution factor, a 4-fold dilution factor, a 3-fold dilution factor, or a 2-fold dilution factor. In some embodiments, the serial dilutions, e.g., 100 nL of serial dilution, 90 nL of serial dilution, 80 nL of serial dilution, 70 nL of serial dilution, 60 nL of serial dilution, 50 nL of serial dilution, 30 nL of serial dilution, 20 nL of serial dilution, or 10 nL of serial dilution, are added to a multi-welled plate, e.g., a 1536-well plate, a 384-well plate, or a 96-well plate. In some embodiments, PARP-1, e.g., GST-tagged PARP-1, is diluted in assay buffer, e.g., 50 μL of assay buffer, 40 μL of assay buffer, e.g., 30 μL of assay buffer, 20 μL of assay buffer, 10 μL of assay buffer, or 5 μL of assay buffer, and is added to the plate. In some embodiments, the plate is centrifuged, e.g., at 1000 rpm for 1 min, and incubated, e.g., incubated for 30 minutes at room temperature (RT). In some embodiments, a fluorescent probe, e.g., 10 μL of 6 nM PARP1-FL (TOCRIS, Cat #6461), is diluted in an assay buffer and is added to the plate. In some embodiments, the final concentrations of PARP-1 and fluorescent probe are 20 nM and 3 nM, respectively, in a total volume of 20 μL. In some embodiments, the plate is centrifuged, e.g., at 1000 rpm for 1 minute, and the assay plate is incubated, e.g., for 4 h at RT. In some embodiments, the samples in each well are read using a plate reader, e.g., an Envision instrument using excitation=480 nm, and emission wavelength=FITC FP-P pol 535 nm & FITC FP-S pol 535 nm). In some embodiments, percent inhibition is calculated from mP values using Inhibition (%)=[1−(mPc−mPL)/(mPH−mPL)]×100%, where mPc, mPL, and mPH are the mP values of test compound, Low controls, and High controls, respectively. In some embodiments, binding IC50 values are calculated using XLFit (equation 201: y=A+((B−A)/(1+((x/C)^D))), where A=bottom, B=top, C=IC50, and D=slope) with a floating top and bottom for curves.
Compounds of the present disclosure were tested in a PARP1 fluorescence polarization binding assay at Pharmaron (Beijing, P.R. China). In this biochemical assay, binding of test compound to recombinant human PARP1 reduces the amount of binding of a fluorescent probe, and consequently reduces the detected level of fluorescence polarization. Test compound stock solutions were prepared in DMSO and then serially diluted into 10 concentrations by 3-fold dilution in a 384-well plate using a TECAN EVO200. Alternatively, a single concentration was prepared. 60 nL of each dilution was transferred to the plate using an Echo550 (Labcyte), and then 10 μL 40 nM GST-tagged PARP1 (BPS Bioscience, Cat #80501), diluted in assay buffer (50 mM Tris pH 8.0, 0.001% Triton X-100, 10 mM MgCl2, 150 mM NaCl), was added to the plate. After a centrifugation at 1000 rpm for 1 min, the assay plate was incubated for 30 min at RT. 10 μL 6 nM PARP1-FL (TOCRIS, Cat #6461), diluted using assay buffer, was then added to the plate. The final concentrations of PARP1 and PARP1-FL were 20 nM and 3 nM, respectively, in a total volume of 20 μL. […]

[3] = target: recombinant human PARP2 (Homo sapiens, UniProt Q9UGN5); test: PARP2 fluorescence polarization binding assay; details: read-out: PARP2 % inh at 10 μM
[4] = tested on: DLD-1 wild-type colorectal adenocarcinoma cells; test: Cell viability assay (Cell Titer-Glo, 7 days), DLD-1 wild-type; type: cell-based; details: Homo sapiens, 168 h, DLD-1 wild-type cells, read-out: DLD-1 wild-type % inh at 10 μM
Excerpt: as §1, §2

[5] = percent inhibition at 10 μM, fluorescence polarization, GST-tagged PARP2 20 nM, PARP1-FL probe 3 nM

Chain of recombinant human PARP2 (Q9UGN5 whole entry): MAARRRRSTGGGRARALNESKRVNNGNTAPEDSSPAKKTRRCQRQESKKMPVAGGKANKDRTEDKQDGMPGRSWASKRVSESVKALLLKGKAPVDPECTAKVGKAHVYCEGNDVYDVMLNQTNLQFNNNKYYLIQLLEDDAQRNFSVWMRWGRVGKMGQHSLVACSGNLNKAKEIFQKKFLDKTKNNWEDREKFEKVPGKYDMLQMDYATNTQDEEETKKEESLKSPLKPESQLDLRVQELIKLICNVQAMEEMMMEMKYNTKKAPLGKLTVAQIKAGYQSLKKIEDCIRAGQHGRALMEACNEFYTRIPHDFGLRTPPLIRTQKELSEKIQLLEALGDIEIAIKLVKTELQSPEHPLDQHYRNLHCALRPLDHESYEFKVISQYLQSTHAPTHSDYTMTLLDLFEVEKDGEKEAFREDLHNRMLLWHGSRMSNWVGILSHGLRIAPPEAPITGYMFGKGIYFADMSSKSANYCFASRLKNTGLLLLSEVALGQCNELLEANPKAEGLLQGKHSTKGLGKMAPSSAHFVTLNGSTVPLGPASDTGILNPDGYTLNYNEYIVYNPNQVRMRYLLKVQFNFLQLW
Chain of recombinant human PARP1 (P09874 whole entry): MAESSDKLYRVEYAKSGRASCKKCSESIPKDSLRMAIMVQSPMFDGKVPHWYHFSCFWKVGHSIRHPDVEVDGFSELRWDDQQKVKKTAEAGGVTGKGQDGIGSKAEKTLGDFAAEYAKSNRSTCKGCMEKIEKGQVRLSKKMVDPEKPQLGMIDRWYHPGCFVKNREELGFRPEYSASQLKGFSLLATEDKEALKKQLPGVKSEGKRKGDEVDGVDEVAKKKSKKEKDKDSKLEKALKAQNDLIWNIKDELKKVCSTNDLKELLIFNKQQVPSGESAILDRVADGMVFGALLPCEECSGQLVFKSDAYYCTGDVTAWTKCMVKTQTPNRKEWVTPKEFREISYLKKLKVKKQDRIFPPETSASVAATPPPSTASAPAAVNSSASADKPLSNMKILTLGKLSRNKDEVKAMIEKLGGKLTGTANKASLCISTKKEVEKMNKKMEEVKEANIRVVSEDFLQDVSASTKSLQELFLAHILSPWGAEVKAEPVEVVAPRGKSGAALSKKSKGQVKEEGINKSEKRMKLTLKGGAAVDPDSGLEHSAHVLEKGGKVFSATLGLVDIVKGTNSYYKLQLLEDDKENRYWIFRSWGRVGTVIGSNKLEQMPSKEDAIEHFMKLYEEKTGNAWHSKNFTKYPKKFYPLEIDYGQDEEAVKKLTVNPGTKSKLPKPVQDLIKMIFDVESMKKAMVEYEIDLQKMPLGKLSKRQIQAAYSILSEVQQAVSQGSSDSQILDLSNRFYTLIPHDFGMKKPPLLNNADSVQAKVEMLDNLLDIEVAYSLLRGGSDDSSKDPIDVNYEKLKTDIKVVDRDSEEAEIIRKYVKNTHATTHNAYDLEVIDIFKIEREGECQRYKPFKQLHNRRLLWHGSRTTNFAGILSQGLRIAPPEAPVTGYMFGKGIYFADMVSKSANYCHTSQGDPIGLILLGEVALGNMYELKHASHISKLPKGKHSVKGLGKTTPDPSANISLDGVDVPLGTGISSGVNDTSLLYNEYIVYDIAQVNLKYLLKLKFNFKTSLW

Compound | IC50 [1] [nM] | IC50 [2] [nM] | inhibition at 10 µM [3, 5] [%] | inhibition at 10 µM [4] [%] | inhibition at 10 µM [3] [%]
CNC(=O)c1ccc(N2CCN(Cc3ccnc(NC(=O)NCCF)c3)CC2)c(C)n1 [Compound 261, 5-(4-((2-(3-(2-fluoroethyl)ureido)pyridin-4-yl)methyl)piperazin-1-yl)-N,6-dimethylpicolinamide] | < 300 | < 100 | < 33 | < 33 | –
CCNC(=O)Nc1ncc(CN2CCN(c3ccc(C(=O)NC)nc3C)CC2)s1 [Compound 242, 5-(4-((2-(3-ethylureido)thiazol-5-yl)methyl)piperazin-1-yl)-N,6-dimethylpicolinamide trifluoroacetate] | 300 to 3000 | < 100 | – | < 33 | < 33
CCNC(=O)Nc1cc(CN2CCN(c3ccc(C#N)nc3)CC2)ccn1 [Compound 267, 1-(4-((4-(6-cyanopyridin-3-yl)piperazin-1-yl)methyl)pyridin-2-yl)-3-ethylurea formate] | < 300 | < 100 | – | < 33 | < 33
CNC(=O)c1ccc(N2CCN(Cc3ccnc(NC(=O)NCC(F)(F)F)c3)CC2)c(C)n1 [Compound 50, N,6-dimethyl-5-(4-((2-(3-(2,2,2-trifluoroethyl)ureido)pyridin-4-yl)methyl)piperazin-1-y) picolinamide trifluoroacetate] | < 300 | < 100 | < 33 | < 33 | –
CCNC(=O)Nc1cc(CN2CCN(c3ccc(C(=O)NC)cc3F)CC2)ccn1 [Compound 31, 4-(4-((2-(3-ethylureido)pyridin-4-yl)methyl)piperazin-1-yl)-3-fluoro-N-methylbenzamide] | 300 to 3000 | < 100 | < 33 | < 33 | –
CCNC(=O)Nc1cc(CN2CCN(c3ccc(C(=O)CC)nc3C)CC2)ccn1 [Compound 7, 1-ethyl-3-(4-((4-(2-methyl-6-propionylpyridin-3-yl)piperazin-1-yl)methyl)pyridin-2-yl)urea] | 300 to 3000 | < 100 | < 33 | 33 to 67 | –
CNC(=O)C(=O)Nc1cc(CN2CCN(c3ccc(C(=O)NC)nc3C)CC2)ns1 [Compound 280, N1-methyl-N2-(3-((4-(2-methyl-6-(methylcarbamoyl)pyridin-3-yl)piperazin-1-yl)methyl)isothiazol-5-yl) oxalamide formate] | – | ≥ 3000 | – | – | –
CCNS(=O)(=O)Nc1cc(CN2CCN(c3ccc(C(=O)NC)nc3C)CC2)ccn1 [Compound 105, 5-(4-((2-((N-ethylsulfamoyl)amino)pyridin-4-yl)methyl)piperazin-1-yl)-N,6-dimethylpicolinamide] | – | ≥ 3000 | < 33 | – | –

More lines, main results first:

IC50 [1] [nM] | IC50 [2] [nM] | inhibition at 10 µM [3, 5] [%] | Compound | inhibition at 10 µM [4] [%] | inhibition at 10 µM [3] [%]
< 300 | < 100 | < 33 | CCNC(=O)Nc1nccc(CN2CCN(c3ccc(C(=O)NC)nc3C)CC2)c1F [Compound 82, 5-(4-((2-(3-ethylureido)-3-fluoropyridin-4-yl)methyl)piperazin-1-yl)-N,6-dimethylpicolinamide] | < 33 | –
≥ 3000 | 100 to 3000 | < 33 | CCNC(=O)Nc1cccc(CN2CCN(c3ccc(C(=O)NC)nc3C)CC2)c1 [Compound 202, 5-(4-(3-(3-ethylureido)benzyl)piperazin-1-yl)-N,6-dimethyl picolinamide formate] | < 33 | –
– | < 100 | – | CCNC(=O)Nc1cc(CN2CCN(c3ccc(C(=O)NC)nc3C)CC2)no1 [Compound 279, 5-(4-((5-(3-ethylureido)isoxazol-3-yl)methyl)piperazin-1-yl)-N,6-dimethylpicolinamide] | – | –
– | ≥ 3000 | – | CCNC(=O)Nc1cc(CN2CCN(c3ccc(C(=O)NC#N)nc3C)CC2)ccn1 [Compound 3, N-cyano-5-(4-((2-(3-ethylureido)pyridin-4-yl)methyl)piperazin-1-yl)-6-methylpicolinamide dihydrochloride] | – | –
– | < 100 | – | CCNC(=O)Nc1cc(CN2CCN(c3ccc(C(=O)NC)nc3C)CC2)n(C)n1 [Compound 281, 5-(4-((3-(3-ethylureido)-1-methyl-1H-pyrazol-5-yl)methyl)piperazin-1-yl)-N,6-dimethylpicolinamide trihydrochloride] | – | –
